± gives the expanded uncertainty stated by the source.
Legend:
[1] = Liquid, Ebulliometric method (Recirculating still)
[2] = Boiling temperature at pressure P; conditions: Liquid, Ebulliometric method (Recirculating still)

## CC(=O)OCC(C)C [2-methylpropyl ethanoate]
[1]; 367.51 K
  vapor or sublimation pressure: 50 ± 0.3 kPa
[1]; 388.93 K
  vapor or sublimation pressure: 100 ± 0.4 kPa
[1]; 389.37 K
  vapor or sublimation pressure: 100 ± 0.4 kPa
[1]; 403.22 K
  vapor or sublimation pressure: 150 ± 0.4 kPa
[1]; 403.64 K
  vapor or sublimation pressure: 150 ± 0.4 kPa
[2]; 39.99 kPa
  Boiling temperature at pressure P: 88 ± 0.26 °C
[2]; 49.98 kPa
  Boiling temperature at pressure P: 94.26 ± 0.24 °C
[2]; 59.99 kPa
  Boiling temperature at pressure P: 99.74 ± 0.21 °C
[2]; 70 kPa
  Boiling temperature at pressure P: 104.24 ± 0.18 °C
[2]; 80 kPa
  Boiling temperature at pressure P: 108.43 ± 0.18 °C
[2]; 90 kPa
  Boiling temperature at pressure P: 112.39 ± 0.17 °C
[2]; 100 kPa
  Boiling temperature at pressure P: 116.22 ± 0.15 °C
[2]; 110 kPa
  Boiling temperature at pressure P: 119.20 ± 0.14 °C
[2]; 120 kPa
  Boiling temperature at pressure P: 122.11 ± 0.14 °C
[2]; 130 kPa
  Boiling temperature at pressure P: 125.01 ± 0.13 °C
[2]; 140 kPa
  Boiling temperature at pressure P: 127.69 ± 0.13 °C
[2]; 150 kPa
  Boiling temperature at pressure P: 130.49 ± 0.14 °C

## CC(=O)OCCC(C)C [3-methylbutyl ethanoate]
[1]; 413.99 K
  vapor or sublimation pressure: 100 ± 0.3 kPa
[2]; 20 kPa
  Boiling temperature at pressure P: 92.14 ± 0.43 °C
[2]; 29.98 kPa
  Boiling temperature at pressure P: 102.91 ± 0.38 °C
[2]; 40.01 kPa
  Boiling temperature at pressure P: 111.16 ± 0.3 °C
[2]; 49.99 kPa
  Boiling temperature at pressure P: 117.92 ± 0.25 °C
[2]; 60 kPa
  Boiling temperature at pressure P: 123.61 ± 0.21 °C
[2]; 70 kPa
  Boiling temperature at pressure P: 128.57 ± 0.19 °C
[2]; 80.01 kPa
  Boiling temperature at pressure P: 133.03 ± 0.17 °C
[2]; 90 kPa
  Boiling temperature at pressure P: 137.09 ± 0.16 °C
[2]; 100.01 kPa
  Boiling temperature at pressure P: 140.8 ± 0.14 °C
[2]; 110 kPa
  Boiling temperature at pressure P: 144.00 ± 0.14 °C
[2]; 119.99 kPa
  Boiling temperature at pressure P: 147.28 ± 0.13 °C
[2]; 130 kPa
  Boiling temperature at pressure P: 150.31 ± 0.12 °C
[2]; 139.99 kPa
  Boiling temperature at pressure P: 153.18 ± 0.12 °C
[2]; 149.99 kPa
  Boiling temperature at pressure P: 155.90 ± 0.11 °C
[2]; 160.01 kPa
  Boiling temperature at pressure P: 158.46 ± 0.11 °C

## CCOC(C)=O [ethyl acetate]
[1]; 330.41 K
  vapor or sublimation pressure: 50 ± 0.3 kPa
[1]; 349.7 K
  vapor or sublimation pressure: 100 ± 0.3 kPa
[1]; 362.48 K
  vapor or sublimation pressure: 150 ± 0.3 kPa
[2]; 54.99 kPa
  Boiling temperature at pressure P: 59.67 ± 0.19 °C
[2]; 59.98 kPa
  Boiling temperature at pressure P: 62.01 ± 0.18 °C
[2]; 70 kPa
  Boiling temperature at pressure P: 66.27 ± 0.16 °C
[2]; 75 kPa
  Boiling temperature at pressure P: 67.77 ± 0.15 °C
[2]; 80 kPa
  Boiling temperature at pressure P: 70.03 ± 0.16 °C
[2]; 84.99 kPa
  Boiling temperature at pressure P: 71.78 ± 0.14 °C
[2]; 89.91 kPa
  Boiling temperature at pressure P: 73.43 ± 0.13 °C
[2]; 95.01 kPa
  Boiling temperature at pressure P: 75.1 ± 0.13 °C
[2]; 101.33 kPa
  Boiling temperature at pressure P: 77.01 ± 0.13 °C
[2]; 104.99 kPa
  Boiling temperature at pressure P: 78.11 ± 0.12 °C
[2]; 109.98 kPa
  Boiling temperature at pressure P: 79.52 ± 0.11 °C
[2]; 119.9 kPa
  Boiling temperature at pressure P: 82.21 ± 0.11 °C
[2]; 124.98 kPa
  Boiling temperature at pressure P: 83.47 ± 0.11 °C
[2]; 129.93 kPa
  Boiling temperature at pressure P: 84.71 ± 0.1 °C
[2]; 134.95 kPa
  Boiling temperature at pressure P: 85.93 ± 0.1 °C
[2]; 139.96 kPa
  Boiling temperature at pressure P: 87.09 ± 0.1 °C
[2]; 149.95 kPa
  Boiling temperature at pressure P: 89.33 ± 0.1 °C
[2]; 154.97 kPa
  Boiling temperature at pressure P: 90.41 ± 0.09 °C
[2]; 159.96 kPa
  Boiling temperature at pressure P: 91.5 ± 0.09 °C
[2]; 164.99 kPa
  Boiling temperature at pressure P: 92.49 ± 0.09 °C
[2]; 174.99 kPa
  Boiling temperature at pressure P: 94.46 ± 0.09 °C
[2]; 180 kPa
  Boiling temperature at pressure P: 95.43 ± 0.08 °C
[2]; 185 kPa
  Boiling temperature at pressure P: 96.4 ± 0.08 °C

— the NIST ThermoML archive (doi:10.1021/acs.jced.6b00221)
